Results taken from ChEMBL document CHEMBL1821711, “Design and synthesis of novel arylpiperazine derivatives containing the imidazole core targeting 5-HT(2A) receptor and 5-HT transporter” (J Med Chem, 2011).

Columns and labels:
[1] = biological target: T1, 5-hydroxytryptamine receptor 2C (Homo sapiens, UniProt P28335); test: biochemical; assay type: cell-based, CHO-K1
T1 sequence (P28335 whole entry): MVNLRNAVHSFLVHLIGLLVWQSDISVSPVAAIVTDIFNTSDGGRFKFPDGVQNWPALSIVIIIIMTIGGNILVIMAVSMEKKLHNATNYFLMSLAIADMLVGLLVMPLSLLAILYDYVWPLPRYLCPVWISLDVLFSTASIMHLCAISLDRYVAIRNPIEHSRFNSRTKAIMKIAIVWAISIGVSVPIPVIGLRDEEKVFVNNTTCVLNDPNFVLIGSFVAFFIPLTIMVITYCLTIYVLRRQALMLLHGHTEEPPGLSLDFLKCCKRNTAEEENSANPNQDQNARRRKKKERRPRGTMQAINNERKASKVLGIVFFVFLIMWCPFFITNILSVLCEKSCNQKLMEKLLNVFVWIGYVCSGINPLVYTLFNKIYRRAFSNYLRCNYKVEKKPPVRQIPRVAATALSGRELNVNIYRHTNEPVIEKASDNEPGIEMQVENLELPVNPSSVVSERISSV
Description: Displacement of [3H]mesulergine from human recombinant 5-HT2C receptor expressed in CHO-K1 cells

in vitro = conditions: mouse, ht-22
Description: Cytotoxicity against mouse HT22 cells after 48 hrs by MTT assay

[2] = biological target: Voltage-gated inwardly rectifying potassium channel KCNH2 (Homo sapiens, UniProt Q12809)
Description: Displacement of [3H]astemizole from human ERG expressed in HEK293 cells

Cytochrome P450 3A4 = Cytochrome P450 3A4 (Homo sapiens, UniProt P08684)
Description: Inhibition of human recombinant CYP3A4 by luceferin-based assay

Cytochrome P450 1A2 = biological target: T2, Cytochrome P450 1A2 (Homo sapiens, UniProt P05177)
T2 sequence (P05177 whole entry): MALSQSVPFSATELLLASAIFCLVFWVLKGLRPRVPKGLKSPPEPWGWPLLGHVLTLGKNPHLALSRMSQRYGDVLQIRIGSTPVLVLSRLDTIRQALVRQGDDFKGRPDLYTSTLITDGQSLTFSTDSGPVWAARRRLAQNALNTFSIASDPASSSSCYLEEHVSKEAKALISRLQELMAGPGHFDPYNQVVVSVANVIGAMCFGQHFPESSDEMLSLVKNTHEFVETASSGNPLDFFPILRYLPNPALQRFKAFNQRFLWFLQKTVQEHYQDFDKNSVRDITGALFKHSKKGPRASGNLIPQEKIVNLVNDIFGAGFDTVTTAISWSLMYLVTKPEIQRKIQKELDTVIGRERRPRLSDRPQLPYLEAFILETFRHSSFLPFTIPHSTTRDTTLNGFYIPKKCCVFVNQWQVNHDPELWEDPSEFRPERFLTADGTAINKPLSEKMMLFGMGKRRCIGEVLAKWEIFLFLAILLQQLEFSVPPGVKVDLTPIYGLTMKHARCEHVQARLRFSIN
Description: Inhibition of human recombinant CYP1A2 by luceferin-based assay

Cytochrome P450 2C9 = Cytochrome P450 2C9 (Homo sapiens, UniProt P11712)
Description: Inhibition of human recombinant CYP2C9 by luceferin-based assay

Cytochrome P450 2D6 = Cytochrome P450 2D6 (Homo sapiens, UniProt P10635)
Description: Inhibition of human recombinant CYP2D6 by luceferin-based assay

D(3) dopamine receptor = D(3) dopamine receptor (Homo sapiens, UniProt P35462)
Description: Inhibition of dopamine D3 receptor by competition binding assay

[3] = biological target: 5-hydroxytryptamine receptor 6 (Homo sapiens, UniProt P50406)
Description: Inhibition of 5HT6 receptor by competition binding assay

D(4) dopamine receptor = biological target: T3, D(4) dopamine receptor (Homo sapiens, UniProt P21917)
T3 sequence (P21917 whole entry): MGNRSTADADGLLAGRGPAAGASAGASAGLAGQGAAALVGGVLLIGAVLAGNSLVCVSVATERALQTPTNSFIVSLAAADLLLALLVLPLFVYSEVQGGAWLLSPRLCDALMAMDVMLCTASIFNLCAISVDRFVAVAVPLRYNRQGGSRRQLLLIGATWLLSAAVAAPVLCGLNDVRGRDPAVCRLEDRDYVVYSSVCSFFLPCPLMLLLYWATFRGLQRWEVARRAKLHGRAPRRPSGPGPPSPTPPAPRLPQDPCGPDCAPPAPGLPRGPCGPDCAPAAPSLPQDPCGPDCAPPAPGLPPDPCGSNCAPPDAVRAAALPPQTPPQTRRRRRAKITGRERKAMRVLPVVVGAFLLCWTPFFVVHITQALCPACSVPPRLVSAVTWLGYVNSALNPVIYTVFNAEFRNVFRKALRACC
Description: inhibition of dopamine D4 receptor by competition binding assay

[4] = biological target: T4, 5-hydroxytryptamine receptor 1A (Homo sapiens, UniProt P08908)
T4 sequence (P08908 whole entry): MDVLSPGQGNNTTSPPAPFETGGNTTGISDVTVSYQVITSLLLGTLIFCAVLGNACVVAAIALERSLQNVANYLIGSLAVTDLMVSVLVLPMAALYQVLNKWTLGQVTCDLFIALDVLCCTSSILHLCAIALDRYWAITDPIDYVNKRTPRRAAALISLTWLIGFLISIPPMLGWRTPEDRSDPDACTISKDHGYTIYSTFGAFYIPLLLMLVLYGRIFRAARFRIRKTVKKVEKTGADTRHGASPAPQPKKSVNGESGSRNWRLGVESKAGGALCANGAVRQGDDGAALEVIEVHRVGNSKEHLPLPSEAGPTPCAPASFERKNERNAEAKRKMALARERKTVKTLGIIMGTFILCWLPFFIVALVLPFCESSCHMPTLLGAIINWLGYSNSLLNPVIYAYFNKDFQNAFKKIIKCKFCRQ
Description: Inhibition of 5HT1A receptor by competition binding assay

[5] = biological target: 5-hydroxytryptamine receptor 7 (Homo sapiens, UniProt P34969)
Description: Inhibition of 5HT7 receptor by competition binding assay

D(2) dopamine receptor = D(2) dopamine receptor (Homo sapiens, UniProt P14416)
Sequence of D(2) dopamine receptor (P14416 whole entry): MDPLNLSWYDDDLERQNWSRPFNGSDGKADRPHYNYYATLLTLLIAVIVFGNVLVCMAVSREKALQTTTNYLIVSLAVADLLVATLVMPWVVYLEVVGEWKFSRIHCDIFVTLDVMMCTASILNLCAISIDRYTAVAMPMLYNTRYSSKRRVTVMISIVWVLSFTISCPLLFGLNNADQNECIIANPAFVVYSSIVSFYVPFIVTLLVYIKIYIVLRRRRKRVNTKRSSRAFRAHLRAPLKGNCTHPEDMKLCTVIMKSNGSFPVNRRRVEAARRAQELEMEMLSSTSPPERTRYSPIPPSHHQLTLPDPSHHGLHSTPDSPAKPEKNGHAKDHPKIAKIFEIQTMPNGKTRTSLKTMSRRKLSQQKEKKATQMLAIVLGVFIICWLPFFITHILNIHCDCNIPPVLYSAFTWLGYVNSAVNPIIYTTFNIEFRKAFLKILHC
Description: Inhibition of dopamine D2 receptor by competition binding assay

Sequence of Voltage-gated inwardly rectifying potassium channel KCNH2 (Q12809 whole entry): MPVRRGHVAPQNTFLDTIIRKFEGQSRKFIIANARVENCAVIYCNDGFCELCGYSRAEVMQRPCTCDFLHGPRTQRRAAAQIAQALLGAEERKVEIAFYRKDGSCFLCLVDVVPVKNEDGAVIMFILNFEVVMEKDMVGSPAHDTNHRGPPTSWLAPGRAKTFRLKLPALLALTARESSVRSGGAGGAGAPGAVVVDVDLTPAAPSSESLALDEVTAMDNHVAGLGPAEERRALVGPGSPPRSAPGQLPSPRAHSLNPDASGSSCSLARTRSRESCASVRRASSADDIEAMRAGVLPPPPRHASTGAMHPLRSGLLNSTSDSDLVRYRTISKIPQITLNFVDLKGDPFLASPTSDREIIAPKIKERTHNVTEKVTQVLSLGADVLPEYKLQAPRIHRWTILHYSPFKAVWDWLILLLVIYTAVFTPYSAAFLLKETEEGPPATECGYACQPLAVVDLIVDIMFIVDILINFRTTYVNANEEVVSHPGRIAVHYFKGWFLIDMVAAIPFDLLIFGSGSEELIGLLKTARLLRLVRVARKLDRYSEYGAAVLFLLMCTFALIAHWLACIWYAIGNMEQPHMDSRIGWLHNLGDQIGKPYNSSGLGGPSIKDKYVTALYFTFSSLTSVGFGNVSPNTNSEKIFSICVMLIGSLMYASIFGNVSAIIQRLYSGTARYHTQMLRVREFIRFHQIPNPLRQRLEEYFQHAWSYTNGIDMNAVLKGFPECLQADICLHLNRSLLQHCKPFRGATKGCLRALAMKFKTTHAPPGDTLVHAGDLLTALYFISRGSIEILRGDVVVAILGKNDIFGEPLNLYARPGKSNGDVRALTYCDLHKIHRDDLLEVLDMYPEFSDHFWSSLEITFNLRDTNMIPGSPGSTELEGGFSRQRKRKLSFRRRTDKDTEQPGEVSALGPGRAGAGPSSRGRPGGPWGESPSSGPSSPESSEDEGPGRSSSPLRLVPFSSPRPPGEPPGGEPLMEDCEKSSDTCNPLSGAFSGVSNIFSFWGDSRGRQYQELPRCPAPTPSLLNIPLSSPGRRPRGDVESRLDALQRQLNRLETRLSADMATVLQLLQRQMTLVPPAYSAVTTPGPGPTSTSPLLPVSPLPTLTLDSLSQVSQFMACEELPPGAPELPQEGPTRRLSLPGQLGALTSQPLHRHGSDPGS
Sequence of 5-hydroxytryptamine receptor 6 (P50406 whole entry): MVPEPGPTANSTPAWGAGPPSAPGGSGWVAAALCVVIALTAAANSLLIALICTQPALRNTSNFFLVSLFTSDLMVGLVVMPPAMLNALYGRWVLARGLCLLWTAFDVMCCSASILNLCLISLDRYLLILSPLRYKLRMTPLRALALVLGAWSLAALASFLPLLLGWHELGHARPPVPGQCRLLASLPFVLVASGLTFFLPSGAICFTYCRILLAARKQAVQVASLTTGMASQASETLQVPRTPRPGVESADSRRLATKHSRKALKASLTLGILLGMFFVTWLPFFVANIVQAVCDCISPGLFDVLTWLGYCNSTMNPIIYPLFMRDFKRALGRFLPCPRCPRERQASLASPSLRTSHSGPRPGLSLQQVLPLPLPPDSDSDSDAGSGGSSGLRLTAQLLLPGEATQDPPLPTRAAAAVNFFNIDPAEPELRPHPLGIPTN
Sequence of 5-hydroxytryptamine receptor 7 (P34969 whole entry): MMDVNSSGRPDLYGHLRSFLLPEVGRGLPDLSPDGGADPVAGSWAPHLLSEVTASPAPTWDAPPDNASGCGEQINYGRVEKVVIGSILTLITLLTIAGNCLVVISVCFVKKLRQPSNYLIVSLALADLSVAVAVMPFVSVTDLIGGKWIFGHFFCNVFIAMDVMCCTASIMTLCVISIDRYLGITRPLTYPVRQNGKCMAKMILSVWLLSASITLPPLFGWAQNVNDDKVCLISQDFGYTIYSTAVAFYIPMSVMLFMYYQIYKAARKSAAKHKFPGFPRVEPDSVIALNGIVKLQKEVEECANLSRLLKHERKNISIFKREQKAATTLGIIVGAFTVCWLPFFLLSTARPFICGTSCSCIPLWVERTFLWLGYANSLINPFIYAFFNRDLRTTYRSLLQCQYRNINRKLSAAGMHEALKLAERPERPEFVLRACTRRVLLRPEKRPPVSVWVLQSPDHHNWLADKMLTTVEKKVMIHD
Sequence of Cytochrome P450 2D6 (P10635 whole entry): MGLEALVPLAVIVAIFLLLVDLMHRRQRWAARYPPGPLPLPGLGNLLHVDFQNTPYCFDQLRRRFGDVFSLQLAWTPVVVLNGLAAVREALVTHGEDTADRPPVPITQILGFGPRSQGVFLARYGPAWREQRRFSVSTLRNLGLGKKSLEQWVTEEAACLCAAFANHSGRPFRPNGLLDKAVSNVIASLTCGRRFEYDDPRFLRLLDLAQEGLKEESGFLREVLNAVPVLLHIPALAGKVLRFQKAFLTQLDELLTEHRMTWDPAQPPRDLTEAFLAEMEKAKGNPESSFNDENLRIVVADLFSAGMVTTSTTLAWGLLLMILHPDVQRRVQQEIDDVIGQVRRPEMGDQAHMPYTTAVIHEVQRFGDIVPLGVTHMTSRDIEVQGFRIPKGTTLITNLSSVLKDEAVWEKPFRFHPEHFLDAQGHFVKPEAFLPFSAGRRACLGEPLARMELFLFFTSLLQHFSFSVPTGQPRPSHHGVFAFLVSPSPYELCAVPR
Sequence of Cytochrome P450 3A4 (P08684 whole entry): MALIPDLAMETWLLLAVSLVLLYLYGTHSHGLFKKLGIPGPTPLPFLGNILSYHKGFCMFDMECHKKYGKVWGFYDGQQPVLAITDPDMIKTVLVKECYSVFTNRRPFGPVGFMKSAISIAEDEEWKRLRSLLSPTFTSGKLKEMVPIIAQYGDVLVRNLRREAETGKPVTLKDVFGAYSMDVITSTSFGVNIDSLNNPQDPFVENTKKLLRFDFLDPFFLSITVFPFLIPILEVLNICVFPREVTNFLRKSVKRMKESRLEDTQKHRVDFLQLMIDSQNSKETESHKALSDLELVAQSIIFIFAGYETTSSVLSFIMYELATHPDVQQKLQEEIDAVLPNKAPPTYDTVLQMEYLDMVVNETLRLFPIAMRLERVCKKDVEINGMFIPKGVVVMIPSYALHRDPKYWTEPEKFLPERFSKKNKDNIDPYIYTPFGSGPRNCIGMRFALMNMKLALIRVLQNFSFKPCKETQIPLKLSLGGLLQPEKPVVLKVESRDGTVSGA
Sequence of Cytochrome P450 2C9 (P11712 whole entry): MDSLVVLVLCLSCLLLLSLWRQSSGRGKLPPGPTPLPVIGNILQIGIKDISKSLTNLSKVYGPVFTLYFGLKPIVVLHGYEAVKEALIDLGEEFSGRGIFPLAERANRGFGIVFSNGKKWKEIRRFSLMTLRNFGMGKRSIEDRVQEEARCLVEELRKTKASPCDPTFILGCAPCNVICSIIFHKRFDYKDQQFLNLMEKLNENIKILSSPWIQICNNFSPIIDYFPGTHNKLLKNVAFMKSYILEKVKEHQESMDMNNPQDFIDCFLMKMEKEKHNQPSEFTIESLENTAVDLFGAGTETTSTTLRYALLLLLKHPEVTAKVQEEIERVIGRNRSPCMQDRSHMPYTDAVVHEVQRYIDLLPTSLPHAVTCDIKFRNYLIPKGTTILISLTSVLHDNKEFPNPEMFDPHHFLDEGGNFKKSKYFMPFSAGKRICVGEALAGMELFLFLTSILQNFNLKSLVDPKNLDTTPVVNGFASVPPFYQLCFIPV
Sequence of D(3) dopamine receptor (P35462 whole entry): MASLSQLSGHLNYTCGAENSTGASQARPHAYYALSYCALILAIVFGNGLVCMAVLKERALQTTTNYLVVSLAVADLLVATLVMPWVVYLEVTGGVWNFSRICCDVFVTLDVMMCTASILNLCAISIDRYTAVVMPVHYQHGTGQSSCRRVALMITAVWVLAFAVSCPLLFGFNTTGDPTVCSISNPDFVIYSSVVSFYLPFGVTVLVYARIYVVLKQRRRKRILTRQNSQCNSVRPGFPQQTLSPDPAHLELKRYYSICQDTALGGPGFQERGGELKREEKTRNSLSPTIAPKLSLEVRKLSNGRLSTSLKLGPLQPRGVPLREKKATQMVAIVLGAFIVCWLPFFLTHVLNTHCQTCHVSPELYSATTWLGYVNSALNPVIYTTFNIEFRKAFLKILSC

Row | IC50 [1] [µM] | IC50 (Cytochrome P450 3A4) [µM] | IC50 (Cytochrome P450 1A2) [µM] | IC50 (Cytochrome P450 2C9) [µM] | IC50 (Cytochrome P450 2D6) [µM] | IC50 (D(3) dopamine receptor) [nM] | IC50 [3] [nM] | IC50 (D(4) dopamine receptor) [µM] | IC50 [4] [nM] | IC50 [5] [nM] | IC50 (D(2) dopamine receptor) [nM] | SMILES | CC50 at 48 h (in vitro) [µM] | IC50 [2] [µM]
1 | 4 | > 20 | > 20 | 4.4 | 17.9 | – | – | – | – | – | – | Cc1cccc(N2CCN(CCCNC(=O)c3nc(C)n(-c4ccc5c(c4)OCCO5)c3C)CC2)c1C | 19.3 | 8.7
2 | – | – | – | – | – | 2190 | 1680 | 3.94 | 3.9 | 6.8 | 908 | Cc1nc(C(=O)NCCN2CCN(c3cccc(Cl)c3Cl)CC2)c(C)n1-c1ccccc1 | – | > 10
